These results are taken from patent US9217743B2, “Screening method utilizing thalidomide-targeting factor” (Tokyo Institute of Technology, priority 2009, dated 2015).

Entries after “also recorded” stand apart in the source; their conditions may differ.

Data set [1] deals with T1, CRBN Y384A (Homo sapiens, UniProt Q96SW2, Y384A).
T1 construct: expressed in transfected cells; host or cells: 293T
The experiment in a line: Binding of CRBN point mutant from 293T extracts to thalidomide-immobilized beads. An excerpt:
(§1) First, thalidomide-binding region was investigated by using the N-terminal and C-terminal deletion mutants. […] The present inventors investigated whether this CRBN YW/AA functionally active in the cells. The subcellular localization of this mutant was indistinguishable from that of wild-type CRBN.
(§2) Recombinant CRBN-FLAG and DDB1-V5-His proteins were expressed in the insect Sf9 cells by using the Bac-to-bac baculovirus expression system (Invitrogen) and purified using anti-FLAG M2 agarose beads (Sigma) and Ni-NTA agarose beads (Qiagen), respectively. Purified CRBN-FLAG and/or DDB1-V5-His were mixed with thalidomide-immobilized beads, and the bound proteins were eluted with an SDS sample buffer. For analysis of CRBN-deletion mutant, GST-fused CRBN and its mutants were expressed in E. coli BL21 and purified using glutathione Sepharose (GE Healthcare). CRBN mutants were overexpressed in 293T cells by transfection using Lipofectamine 2000 (Invitrogen). Subsequent binding assays were carried out as described above.

Data set [2] has as its target T2, CRBN YW/AA (Y384A/W386A) (Homo sapiens, UniProt Q96SW2, W386A/Y384A).
T2 construct: expressed in transfected cells; host or cells: 293T
Description: Binding of CRBN double mutant from 293T extracts to thalidomide-immobilized beads.
Description: as §1, §2

The target of data set [3] is T3, zCrbn (Danio rerio, UniProt Q68EH9, D160E).
T3 construct: expressed in transfected cells; host or cells: 293T (stably expressing FH-zCrbn)
T3 sequence (Q68EH9 1-431 D160E): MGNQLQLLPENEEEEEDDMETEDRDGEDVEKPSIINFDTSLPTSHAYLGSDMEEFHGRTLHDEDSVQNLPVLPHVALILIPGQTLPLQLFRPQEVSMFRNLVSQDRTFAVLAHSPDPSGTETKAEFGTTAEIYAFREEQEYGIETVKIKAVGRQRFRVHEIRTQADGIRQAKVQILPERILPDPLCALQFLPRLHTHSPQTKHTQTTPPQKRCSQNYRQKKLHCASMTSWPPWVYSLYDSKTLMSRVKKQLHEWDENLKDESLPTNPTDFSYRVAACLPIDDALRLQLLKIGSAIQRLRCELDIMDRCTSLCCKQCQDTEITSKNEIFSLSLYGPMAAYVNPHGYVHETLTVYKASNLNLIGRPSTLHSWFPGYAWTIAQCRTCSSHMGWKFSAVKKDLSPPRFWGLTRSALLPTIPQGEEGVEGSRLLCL
The experiment in a line: Binding of FH-zCrbn from 293T extracts to thalidomide beads. The conditions noted are these: FH-zCrbn in 293T extract. Details: species or system zebrafish. The method, then:
FIG. 14 relates to biochemical analysis results of zCrbn. […] Bound proteins were eluted by thalidomide, and eluate were analyzed by western blotting. zCrbn bound to thalidomide. (B) Lysate from 293T cells overexpressing FH-zCrbn was immunoprecipitated with anti-FLAG antibody, and DDB1 was detected by western blotting. […] (C) Lysate from FLAG-zCrbn (wild type) or FLAG-zCrbn YW/AA overexpressed in 293T cells was mixed with thalidomide beads. For quantification, various amounts of input and eluate fraction were analyzed by western blotting.

The target of data set [4] is T4, CRBN-containing E3 complex (Homo sapiens, UniProt Q96SW2).
T4 construct: expressed in transfected cells; host or cells: 293T stably expressing FH-CRBN
Description: Autoubiquitination in live cells, 293T cells stably expressing FH-CRBN. The format is cell-based. The conditions noted are these: thalidomide 10, 30 and 100 μM, with MG132. On the procedure: (§3) The present inventors examined whether thalidomide would inhibit ubiquitination of the CRBN-containing E3 complex. 293T cells stably expressing FH-CRBN or FH-CRBN YW/AA were treated with MG132 and thalidomide (10, 30, and 100 μM) at similar concentration relative to the therapeutic doses used in human.
(§4) The assays were performed as described (Cited Literature 38). 293T cells stably expressing FH-CRBN or its mutant were treated with 10 μM MG132 or DMSO (vehicle) for three hours. The cells lysate were prepared using RIPA buffer containing 25 μM MG132 and 10 mM N-ethylmaleimide. FH-CRBN was immunoprecipitated and analyzed as described above. Various concentrations of thalidomide were added to cells one hour prior to MG132 treatment.

Data set [5] has as its target T5, CRBN YW/AA (Homo sapiens, UniProt Q96SW2, W386A/Y384A).
T5 construct: expressed in transfected cells; host or cells: 293T stably expressing FH-CRBN YW/AA
Description: Autoubiquitination in live cells, 293T cells stably expressing FH-CRBN YW/AA. The format is cell-based. As to conditions: thalidomide 10, 30 and 100 μM, with MG132. The method, then: as §3, §4

For data set [6], the system named is fgf8a. Description: Whole-mount in situ hybridization of zebrafish fin buds. Type of data set: in vivo. An excerpt: (§5) To obtain a clue to the pathway(s) downstream of CRBN and thalidomide, the present inventors analyzed well-known key molecules in fin development. Sonic hedgehog (Shh) is expressed in the zone of polarizing activity (ZPA) and is responsible for anteroposterior patterning of the limb and fin (Cited Literature 27), whereas Fgf8 is expressed in the apical ectodermal ridge (AER) of the limb and fin and is necessary for outgrowth of the limb and fin along the proximodistal axis. […] Thus, an inhibitor of FGF8 production is a possible downstream target of thalidomide and the CRBN-containing E3 complex.
(§6) This assay was carried out in accordance with Cited Literature 41. Antisense probe for zcrbn mRNA was directed against the 5′-coding region of 513 bp. Antisense probe for zcul4a was directed against the 3′ untranslated region (3′ UTR) of 590 bp. Probes for shh and fgf8 were kindly provided by Dr. Krauss and Dr. Thisse, respectively. To increase permeability of probes, fixed embryos were incubated with PBS containing 0.1% Tween-20 and […] proteinase K for two minutes at room temperature.

The test system of data set [7] is shh. Described as above. The conditions noted are these: thalidomide-treated 48-hpf embryos. Type of data set: in vivo.
Description: as §5, §6

For data set [8], the target named is T6, DDB1 and CRBN (Homo sapiens, UniProt Q96SW2).
T6 construct: endogenous in cells; host or cells: HeLa
Description: Affinity purification from HeLa cell extracts with thalidomide-immobilized beads, competition by free thalidomide. Type of data set: binding. As to conditions: 0.3 mM free thalidomide added to HeLa extracts before the beads. On the procedure:
To purify thalidomide-binding proteins, the present inventors performed affinity purification using FG beads, which are magnetic particles (Cited Literature 9). FR259625, a thalidomide derivative in which a carboxyl group is added was covalently immobilized on the FG beads (FIG. 6), and mixed and incubated with human HeLa cell extracts. […] The 127 and 55 kDa proteins were analyzed by mass spectrometry and identified as DDB1 and CRBN, respectively (Table 1). Identities of these proteins were also confirmed by Western blotting (immunoblotting) (FIG. 1A), and further, these proteins were isolated similarly as thalidomide binding protein from extracts of various cell types (FIG. 7). To determine whether this interaction with thalidomide is direct, the present inventors purified recombinant proteins. CRBN-FLAG, but not DDB1-V5-His, bound to thalidomide-immobilized beads (FIG. 1B).

Data set [9] concerns the target CRBN (Homo sapiens, UniProt Q96SW2). The experiment in a line: Elution of CRBN from thalidomide-immobilized beads by test compound, Western blotting. In general terms: A western blot detects proteins with antibodies after separation by electrophoresis.
Data set [10] concerns DDB1. The experiment in a line: Elution of DDB1 from thalidomide-immobilized beads by test compound, Western blotting. As to conditions: Example 6; 293T extracts; elution with 1 mM compound.

`O=C1CCC(N2C(=O)c3ccccc3C2=O)C(=O)N1` (stereo not drawn) [thalidomide]: the “thalidomide binding of CRBN Y384A” value in data set [1] is recorded as “defective”. The “thalidomide-binding activity of CRBN YW/AA” value in [2] is reported as “extremely low”. Besides, the “binding of zCrbn to thalidomide” value in [3] is listed as “bound”. Further, the “autoubiquitination of wild-type CRBN” value in [4] is recorded as “potently inhibited; also recorded: suppressed”. Besides, the “autoubiquitination of CRBN YW/AA” value in [5] was “not affected”. Besides, the fgf8a expression entry in [6] (thalidomide-treated 48-hpf embryos) is “reduced or absent; also recorded: severely reduced”; in [6] (thalidomide-treated embryos injected with zCrbn YW/AA), “restored”. In data set [7], the shh expression entry was “no change”. Further, the “yield of DDB1 and CRBN on the beads” value in data set [8] is reported as “reduced significantly”. Besides, the “CRBN eluted from thalidomide-immobilized beads by the compound” value in data set [9] (293T cell extracts, buffer containing 0.1 to 1 mM compound, one hour, Western blotting) is “eluted”. Moreover, the “CRBN in the eluate fraction” value in data set [9] (Example 6, 293T extracts, elution with 1 mM compound) is reported as “detected”. Besides, the “DDB1 in the eluate fraction” value in data set [10] is “detected”.
